Laboratory results taken from US20240277692A1, “1,2-DIHYDROQUINOLINE-2-ONES FOR THEIR USE IN THE TREATMENT OF LIMB-GIRDLE MUSCULAR DYSTROPHY” (CONSEJO SUPERIOR DE INVESTIGACIONES CIENTÍFICAS, priority 2021, published 2024).

Tests used:
FRBZ gene, β1D integrin = conditions: LiCl treatment, cited from earlier work
GSK3 [1] = conditions: low therapeutic dose 0.5 mM, Kurgan et al. 2019; cited from earlier work
GSK3β = conditions: low dose, Whitley et al. 2020, cited from earlier work
Akt/mTOR pathway = assay: Western blot of Akt/mTOR pathway proteins in human myotubes; type: cell-based
Experimental: (§1) To obtain primary myoblasts, muscle biopsies were processed and cultured in monolayer according to the method described by Askanas (Neurology, 1975, 25, 58-67). To isolate the pure population of myoblasts and CD56-negative cells (CD56-), the protocol described previously (Jaka et al., Expert Reviews in Molecular Medicine, 2017, 19, e2) was used, using immunomagnetic separation based on the early presence of the surface marker CD56 (Miltenyi Biotec, 130-050-401).
(§2) Myoblasts were cultured in proliferation medium (DMEM, M-199, Insulin, Glutamine and penicillin-streptomycin) with 10% FBS and growth factors at 37° C. in 5% CO2 air incubator. When myoblasts reached confluence, the FBS concentration was reduced to 2% and growth factors were removed from the medium, promoting fusion and production of myotubes.
(§3) VP0.7 was provided by Dr. Ana Martínez (from The Center for Biological Research, CSIC). It was administered at 1.2 μM, whereas LiCl (Sigma-Aldrich, L7026) was used for comparative purposes at a final concentration of 10 mM. VP0.7 and LiCl were administered at the above referred concentrations to myotubes at eight days of differentiation, and VP0.7 also to skin fibroblasts and to CD56-cells. Negative controls, in the case of VP0.7, were performed with DMSO (Fisher Scientific, BP-231). At 48 hours after drug administration, RNA and proteins were extracted.
(§4) Protein collection from muscle samples and cell cultures, as well as Western blot procedure, were performed as previously described (Jaka et al., Expert Reviews in Molecular Medicine, 2017, 19, e2).
Furthermore, downstream of the mTOR pathway, the p70S6K and RPS6 proteins were analysed. After administration of VP0.7, the expression of total p70S6K, its phosphorylation (Thr421/Ser424 and Thr389), as well as the levels of phosphorylation of the RPS6 protein (Ser235/Ser236) increased in the patient's sample. In the control, the effect observed after the treatments is very slight (FIG. 3B).
For comparative purposes, LiCl was also administered in control and patient's myotubes and the phosphorylation of p70S6K and RPS6 proteins were also tested. The results are depicted in FIG. 4.

Wnt pathway [2] = assay: Western blot of Wnt pathway proteins in human myotubes after drug administration; type: cell-based; conditions: for active β-catenin: myotubes
Experimental: as §1, §2, §3, §4
We proceeded to analyse the expression of the GSK3β protein, as well as its downstream effect on the Wnt pathway in myotubes from controls and patients after drug administration. […] As a control assay, lithium was administered and an increase in active β-catenin was verified (FIG. 2C).

Wnt pathway [3] = assay: Western blot of Wnt pathway proteins in CD56- cells; type: cell-based, human; conditions: VP0.7 1.2 μM, 48 h
From the text: as §1, §3, §4

integrin β1D and melusin = assay: Western blot of costamere structural proteins in human myotubes; type: cell-based; conditions: VP0.7 1.2 μM, 48 h
Experimental: as §3, §4
Likewise, the expression of some of the structural proteins that are part of the costamere, whose expression is altered in LGMDR1 patients, was analysed. After drug administration, an increase in integrin β1D and melusin was also observed (FIG. 2E).

GSK3 [4] = molecular target: GSK3 (Homo sapiens, UniProt P49841); conditions: highly selective and allosteric modulator; Luna-Medina 2007, Palomo 2011; cited from earlier work
Chain of GSK3 (Homo sapiens, UniProt P49841) (P49841 whole entry): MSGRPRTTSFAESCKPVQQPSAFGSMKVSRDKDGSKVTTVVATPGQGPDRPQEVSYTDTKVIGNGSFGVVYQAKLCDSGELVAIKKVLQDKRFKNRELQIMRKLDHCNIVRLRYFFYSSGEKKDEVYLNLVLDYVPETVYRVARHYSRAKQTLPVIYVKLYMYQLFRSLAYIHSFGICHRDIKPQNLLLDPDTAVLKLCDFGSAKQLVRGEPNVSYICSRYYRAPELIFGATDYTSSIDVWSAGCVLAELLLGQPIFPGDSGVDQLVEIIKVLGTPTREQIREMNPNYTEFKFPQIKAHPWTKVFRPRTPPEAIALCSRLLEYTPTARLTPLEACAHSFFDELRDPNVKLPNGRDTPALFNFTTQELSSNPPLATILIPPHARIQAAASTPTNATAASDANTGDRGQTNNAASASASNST

mTOR pathway [5] = assay: Western blot of mTOR pathway proteins in CD56- cells; type: cell-based, human; conditions: VP0.7 1.2 μM, 48 h
From the text: as §1, §3, §4

Wnt pathway [6] = assay: Western blot of Wnt pathway proteins in skin fibroblasts; type: cell-based, human; conditions: VP0.7 1.2 μM, 48 h
Experimental: (§5) Skin fibroblasts from healthy controls and from LGMDR1 patients were provided by Dr. Ana Aiastui (Biodonostia Health Research Institute, Cell Culture and Histology Platform). Cells were cultured in Dulbecco's modified Eagle's medium (DMEM, Gibco, 41966-029) supplemented with 10% FBS (Gibco, 10270-106) and 1% penicillin-streptomycin (Gibco, 15140-122) at 37° C. in a 5% CO2 air incubator. Human fibroblasts were cultured at a density of 4×10^4 cells/ml.
as §3, §4

mTOR pathway [7] = assay: Western blot of mTOR pathway protein in skin fibroblasts; type: cell-based, human; conditions: VP0.7 1.2 μM, 48 h
Experimental: as §5, §3, §4

[8] = tested on: CAPN3, FOS, ANOS1 and ITGB1BP2 genes; assay: Quantitative real-time PCR of deregulated genes in LGMDR1 myotubes; type: cell-based, human; conditions: VP0.7 1.2 μM, 48 h
Experimental: as §3
RNA extraction from primary myoblast/myotubes was performed with an RNeasy Mini Kit (Qiagen). In the case of the muscle biopsies, which were snap frozen and stored at −80° C. until use, total RNA was obtained using an RNA-Plus Kit (QBiogene).
The isolated RNA was reverse-transcribed to first-strand complementary DNA (cDNA) in a final volume of 50 μl using a High Capacity cDNA Reverse Transcription Kit (Applied Biosystems), according to the manufacturer's instructions. The expression levels of CAPN3, FOS, ITGB1BP2, ANOS1 and GAPDH genes in the samples were assessed by real-time quantitative PCR with TaqMan probes (Table Il below) using the ‘CFX384 Real-Time PCR Detection System’ (Bio-Rad).
On the other hand, in previous studies we had already described that activating the Wnt pathway through the silencing of the FRZB gene or with treatment with lithium, the expression of some altered genes in the muscle of patients was recovered (Jaka et al., Expert Reviews in Molecular Medicine, 2017, 19, e2; Casas-Fraile et al., Orphanet Journal of Rare Diseases, 2020, 15(1), 119). Thus, their expression was analysed after administering VP0.7.

[9] = LiCl 10 mM, drug administration +, myotubes, control 09-23
[10] = LiCl 10 mM, drug administration +, myotubes, control 13-07
[11] = LiCl 10 mM, drug administration +, myotubes, patient 09-21
[12] = LiCl 10 mM, drug administration +, myotubes, patient 09-24
[13] = LiCl 10 mM, drug administration +, myotubes, patient 09-25
[14] = VP0.7 1.2 μM, 48 h, patient's myotubes
[15] = VP0.7 1.2 μM, 48 h, patient's sample, myotubes
[16] = VP0.7 1.2 μM, myotubes, control 13-05, relative to the same sample without treatment
[17] = VP0.7 1.2 μM, myotubes, patient 09-25, relative to the same sample without treatment

SMILES: [Cl-].[Li+] [LiCl, reference compound]
- expression of the FRBZ gene (FRBZ gene, β1D integrin; Jaka et al. 2017): lower levels
- β1D adult isoform of the integrin (FRBZ gene, β1D integrin; primary myotubes): higher levels
- inhibition of GSK3 (GSK3 [1]): inhibit
- myoblast fusion (GSK3 [1]): augment
- inhibition of GSK3β (GSK3β): effective in inhibiting
- fatigue resistance in some muscles (GSK3β; via NFAT activation): enhances
- proteins involved in the mTOR pathway and their phosphorylation forms (Akt/mTOR pathway; LiCl 10 mM, 48 h, control and patient's myotubes): did not provide any increase
- P-RPS6 (S235-S236) (Akt/mTOR pathway; [9]): 3.8
- P-p70S6K (T421-S424) (Akt/mTOR pathway; [9]): 0.78
- P-RPS6 (S235-S236) (Akt/mTOR pathway; [10]): 3
- P-p70S6K (T421-S424) (Akt/mTOR pathway; [10]): 0.7
- P-RPS6 (S235-S236) (Akt/mTOR pathway; [11]): 1.5
- P-p70S6K (T421-S424) (Akt/mTOR pathway; [11]): 0.5
- P-RPS6 (S235-S236) (Akt/mTOR pathway; [12]): 3
- P-p70S6K (T421-S424) (Akt/mTOR pathway; [12]): 1.4
- P-RPS6 (S235-S236) (Akt/mTOR pathway; [13]): 2.5
- P-p70S6K (T421-S424) (Akt/mTOR pathway; [13]): 0.65
- active β-catenin (Wnt pathway [2]; LiCl 10 mM, 48 h, control assay): increase

SMILES: CCCCCCCCCCCC(=O)NNC(=O)c1c(O)c2ccccc2n(CC)c1=O [VP0.7, N′-dodecanoyl-1-ethyl-4-hydroxy-2-oxo-1,2-dihydroquinoline-3-carbohydrazide]
- active form of β-catenin (Wnt pathway [3]): no significant alteration
- amount of total β-catenin (Wnt pathway [3]): no significant alteration
- integrin β1D (integrin β1D and melusin): increase
- melusin (integrin β1D and melusin): increase
- inhibition of GSK3 (GSK3 [4]): reversibly inhibits
- mTOR (mTOR pathway [5]): no differences
- phosphorylation of RPS6 (mTOR pathway [5]): no differences
- phosphorylation of p70S6K (mTOR pathway [5]): no differences
- active form of β-catenin (Wnt pathway [6]): did not show an increase
- phosphorylation of GSK3β(Ser9) (Wnt pathway [6]): did not show an increase
- β-catenin (Wnt pathway [6]): did not show an increase
- effect on p70S6K and RPS6 expression/phosphorylation (Akt/mTOR pathway; VP0.7 1.2 μM, 48 h, control myotubes): very slight
- phosphorylation of mTOR (Ser2448) (Akt/mTOR pathway; [14]): significant increase
- phosphorylation of mTOR (Ser2481) (Akt/mTOR pathway; [14]): significant increase
- total mTOR (Akt/mTOR pathway; [14]): no significant changes
- expression of total p70S6K (Akt/mTOR pathway; [15]): increased
- p70S6K phosphorylation (Thr389) (Akt/mTOR pathway; [15]): increased
- p70S6K phosphorylation (Thr421/Ser424) (Akt/mTOR pathway; [15]): increased
- phosphorylation of the RPS6 protein (Ser235/Ser236) (Akt/mTOR pathway; [15]): increased
- P-p70S6K (T421-S424) (Akt/mTOR pathway; VP0.7 1.2 μM, myotubes, control 13-05, protein expression value relative to the same sample without treatment): 1
- P-RPS6 (S235-S236) (Akt/mTOR pathway; [16]): 1.1
- P-p70S6K (T389) (Akt/mTOR pathway; [16]): 0.94
- P-p70S6K (T421-S424) (Akt/mTOR pathway; VP0.7 1.2 μM, myotubes, patient 09-25, protein expression value relative to the same sample without treatment): 1.6
- P-RPS6 (S235-S236) (Akt/mTOR pathway; [17]): 2.8
- P-p70S6K (T389) (Akt/mTOR pathway; [17]): 1.6
- phosphorylation of RPS6 (mTOR pathway [7]): very slight increase
- total β-catenin expression (Wnt pathway [2]; VP0.7 1.2 μM, 48 h, myotubes day 8 of differentiation, controls and LGMDR1 patients): increase
- active β-catenin (Wnt pathway [2]; VP0.7 1.2 μM, 48 h, controls and LGMDR1 patients): increase
- inhibition of GSK3β kinase (Wnt pathway [2]; myotubes after drug administration): effective inhibition
- expression of ANOS1 [8]: increase
- expression of CAPN3 [8]: increase
- expression of FOS [8]: increase
- expression of ITGB1BP2 [8]: increase
